Series [1] deals with visceral pain in the mouse. In words: Analgesic effect, Koster and Anderson test (visceral pain induced by intraperitoneal acetic acid). In kind it is in vivo. The following applies: oral, 30 minutes before acetic acid injection, read-out: ED50 (50% effective dose reducing by one half the number of symptoms of pain). As to the method:
A visceral pain is induced in the mouse by intraperitonal injection of a dilute solution of acetic acid (Koster and Anderson test).
The animals, which are starved on the day before the experiment, and separated into random batches of five, are treated with the products under test 30 minutes before injection of the irritant. Treatment was always performed orally.
After the acetic solution is injected the animals show symptoms of pain (stretching of the abdomen with extension of the back feet) which are counted during two spells of five minutes for each lot: from the fifth to the tenth minute and from the fifteen to the twentieth minute respectively after the acid is injected.
The ED50 value is expressed in mg per kg bodyweight.
These doses were obtained by oral administration of the products of the invention.

In the next series the test system is central nervous system. Kind of series: Tranquillising effect, exploration test (perforated board). In kind it is in vivo. The following applies: mouse, oral route. As to the method:
Exploration test (perforated board): the number of holes explored by an animal (mouse) which has unrestricted movement and is placed on the board for the first time, are recorded.

Another series is described as follows: Acute toxicity (LD50). The following applies: in vivo, mouse. From the text: Moreover, the compounds of the present invention are not, in general, very toxic.
Toxicity, expressed in mg/kg bodyweight, is given below for certain other compounds when administered by the sub-cutaneous route and by the oral route.

[2] abbreviates: sc, sub-cutaneous route, read-out: LD50 / toxicity, sub-cutaneous.
Setting [3] is: oral route, read-out: LD50 / toxicity, oral.

Where two headings read alike, the source gives them in different places.

For `CC(=O)Cc1cn(CCN(C)C)c2ccccc12` [compound 5353], the ED50 is 1.5 mg/kg in series [1] and 5 mg/kg in the series on central nervous system.

With `CC(Cc1cn(CCN(C)C)c2ccccc12)=NO` [compound 5354], the ED50 in series [1] stood at 3 mg/kg.

For the compound `CC(Cc1cn(CCN(C)C)c2ccccc12)=NOCCN(C)C` [compound 5444], in series [1], the ED50 was 6.25 to 12.5 mg/kg.

On to `CC(=O)ON=C(C)Cc1cn(CCN(C)C)c2ccccc12` [compound 5472], for which the figures for the ED50 (in series [1]; in the series with central nervous system) were 0.75 to 1.5 mg/kg and 5 mg/kg, respectively. For the same compound, the LD50 in the series “Acute toxicity (LD50)” (setting [2]) worked out at 400 mg/kg; in the series “Acute toxicity (LD50)” (setting [3]), 200 mg/kg.

As for `CCC(=O)ON=C(C)Cc1cn(CCN(C)C)c2ccccc12` [compound 5473], in series [1], the ED50 is 0.75 to 1.5 mg/kg. Also, the LD50 in the series “Acute toxicity (LD50)” (setting [2]) was 200 to 400 mg/kg; in the series “Acute toxicity (LD50)” (setting [3]), over 400 mg/kg.

For `CCN(CC)CCn1cc(CC(C)=O)c2ccccc21` [compound 5477], the results for the LD50 in the series “Acute toxicity (LD50)” (setting [2]) and in the series “Acute toxicity (LD50)” (setting [3]) were 200 mg/kg and 400 mg/kg, respectively.

As for `CC(O)Cc1cn(CCN(C)C)c2ccccc12` (centres unmarked) [compound 5607], in series [1], the ED50 stood at 0.75 mg/kg. Also, the results for the LD50 in the series “Acute toxicity (LD50)” (setting [2]) and in “Acute toxicity (LD50)” (setting [3]) were 800 mg/kg and over 800 mg/kg, respectively.

For the compound `CCN(CC)CCn1cc(CC(C)O)c2ccccc21` (centres unmarked) [compound 5938], the ED50 in series [1] stood at 1.5 mg/kg.

`COc1ccc(-n2cc(CC(C)O)c3ccccc32)cc1` (centres unmarked) [compound 5992]: in the series with central nervous system, the ED50 was 1 mg/kg. For the same compound, the LD50 in “Acute toxicity (LD50)” (setting [2]) and in “Acute toxicity (LD50)” (setting [3]) was over 400 mg/kg throughout.

Broadly, the ED50 is the midpoint of the dose-response relation.

Source of the values: patent US3933853A, “Indole derivatives” (Clin Midy, priority 1972, dated 1976).
